Laboratory results reported in US20180104224A1, “PHARMACEUTICAL COMPOSITIONS COMPRISING ANTIBACTERIAL AGENTS” (priority 2014, published 2018).

Assays:
[1] = tested on: Pseudomonas aeruginosa 1405; assay: Time kill study; assay type: cell-based; conditions: P. aeruginosa 1405
Experimental: (§1) The synergistic killing effect of the combinations according to invention was studied by performing time kill studies. In a typical time kill study, the freshly grown cultures were diluted to the required cell density (initial starting inoculum) in Cation adjusted Muller Hinton broth medium (BD, USA). The antibacterial agents (either alone or in combination) at the required concentrations were added into the culture-containing medium. The samples were incubated under shaking condition (120 rpm) at 37° C. Enumeration of viable bacterial count was done every 2 hour by diluting in normal saline and plating on to the Tryptic Soya Agar plates (BD, USA). The plates were incubated for 24 hours to arrive at the viable bacterial count. The results are expressed in terms of Log10 CFU per ml. In general, the decrease of 1 Log10 CFU/ml, corresponds to 90% killing of bacteria.

[2] = tested on: Pseudomonas aeruginosa R70; assay: Time kill study; assay type: cell-based; conditions: P. aeruginosa R70
Experimental: as §1

P. aeruginosa R 70 = assay: MIC determination in Muller Hinton Agar (CLSI);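 on MIC (mcg/ml) of carbapenem in presence of [A] at 4 mcg/ml: MIC read as lowest concentration giving complete growth inhibition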;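 on MIC (mcg/ml) of carbapenem in presence of [B] at 4 mcg/ml: MIC read as lowest concentration giving complete growth inhibition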; assay type: cell-based, Pseudomonas aeruginosa; conditions: for MIC: Pseudomonas aeruginosa, R70, 18 h, agent alone, P. aeruginosa R 70 [Reduced OprD + increased efflux]
Experimental: (§2) The antibacterial activity of combinations according to the invention against resistant bacterial strains was investigated. Minimum Inhibitory Concentration (MIC) determination for the combinations according to invention was carried out in Muller Hinton Agar (MHA) (BD, USA) according to Clinical and Laboratory Standards Institute (CLSI) recommendations, (Clinical and Laboratory Standards Institute (CLSI), Performance Standards for Antimicrobial Susceptibility Testing, 20th Informational Supplement, M 100-S20, Volume 30, No. 1, 2010). In short, the test strains were adjusted to deliver about 10^4 CFU per spot with a multipoint inoculator (Applied Quality Services, UK). The plates were pored with MHA containing doubling concentration range of the test combinations according to invention. The plates were inoculated and were incubated at 35° C. for 18 hours.

P. aeruginosa 2779 = assay: MIC determination in Muller Hinton Agar (CLSI); assay type: cell-based, Pseudomonas aeruginosa;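 further: MIC read as lowest concentration giving complete growth inhibition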
Experimental: as §2

P. aeruginosa 1405 = assay: MIC determination in Muller Hinton Agar (CLSI); assay type: cell-based, Pseudomonas aeruginosa;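 further: MIC read as lowest concentration giving complete growth inhibition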
Experimental: as §2

P. aeruginosa J 154 = assay: MIC determination in Muller Hinton Agar (CLSI); assay type: cell-based, Pseudomonas aeruginosa; conditions: for MIC: Pseudomonas aeruginosa, J154, agent alone, P. aeruginosa J 154 [Reduced OprD]
Experimental: as §2

[3] = tested on: highly resistant strains of Pseudomonas aeruginosa; assay: MIC determination, all strains; assay type: cell-based; conditions: when used alone; highly resistant strains of P. aeruginosa
Experimental: as §2
The results on antibacterial activity of a carbapenem antibacterial agent selected from imipenem, meropenem, ertapenem and doripenem alone and in combination with Compound A or Compound B, against highly resistant strains of Pseudomonas aeruginosa are given in Table 1. […] For example, P. aeruginosa 2779 harbors resistance due to increased AmpC expression (300 times) and increased efflux; P. aeruginosa 1405 harbors resistance due to increased AmpC expression (600 times), reduced OprD expression and increased efflux; P. aeruginosa R 70 harbors resistance due to reduced OprD expression and increased efflux; and P. aeruginosa J 154 harbors resistance due to reduced OprD.

[4] = in presence of Compound A at 4 mcg/ml
[5] = in presence of Compound B at 4 mcg/ml

C[C@@H](O)[C@H]1C(=O)N2C(C(=O)O)=C(SCCN=CN)C[C@H]12 [Imipenem, imipenem]
Bacterial count (Log10 CFU/ml) 0 hour ([1]; Table 2, single agent 4 mcg/ml): 6.84 Log10 CFU/ml | Bacterial count (Log10 CFU/ml) 2 hour ([1]; Table 2, single agent 4 mcg/ml): 6.39 Log10 CFU/ml | Bacterial count (Log10 CFU/ml) 4 hour ([1]; Table 2, single agent 4 mcg/ml): 7.04 Log10 CFU/ml | Bacterial count (Log10 CFU/ml) 6 hour ([1]; Table 2, single agent 4 mcg/ml): 8.16 Log10 CFU/ml | Bacterial count (Log10 CFU/ml) 0 hour ([1]; Table 3, single agent 4 mcg/ml): 6.81 Log10 CFU/ml | Bacterial count (Log10 CFU/ml) 2 hour ([1]; Table 3, single agent 4 mcg/ml): 6.4 Log10 CFU/ml | Bacterial count (Log10 CFU/ml) 4 hour ([1]; Table 3, single agent 4 mcg/ml): 7.78 Log10 CFU/ml | Bacterial count (Log10 CFU/ml) 6 hour ([1]; Table 3, single agent 4 mcg/ml): 7.93 Log10 CFU/ml | Bacterial count (Log10 CFU/ml) 0 hour ([2]; Table 4, single agent 2 mcg/ml): 6.62 Log10 CFU/ml | Bacterial count (Log10 CFU/ml) 2 hour ([2]; Table 4, single agent 2 mcg/ml): 5.7 Log10 CFU/ml | Bacterial count (Log10 CFU/ml) 4 hour ([2]; Table 4, single agent 2 mcg/ml): 5.98 Log10 CFU/ml | Bacterial count (Log10 CFU/ml) 6 hour ([2]; Table 4, single agent 2 mcg/ml): 6.78 Log10 CFU/ml | Bacterial count (Log10 CFU/ml) 0 hour ([2]; Table 5, single agent 2 mcg/ml): 6.44 Log10 CFU/ml | Bacterial count (Log10 CFU/ml) 2 hour ([2]; Table 5, single agent 2 mcg/ml): 5.6 Log10 CFU/ml | Bacterial count (Log10 CFU/ml) 4 hours ([2]; Table 5, single agent 2 mcg/ml, 4 hours): 5.8 Log10 CFU/ml | Bacterial count (Log10 CFU/ml) 6 hour ([2]; Table 5, single agent 2 mcg/ml): 6.3 Log10 CFU/ml | MIC (P. aeruginosa R 70): 8 mg/L | MIC (mcg/ml) of carbapenem in presence of [A] at 4 mcg/ml (P. aeruginosa R 70; in presence of Compound A at 4 mcg/ml, P. aeruginosa R 70): 2 µg/mL | MIC (mcg/ml) of carbapenem in presence of [B] at 4 mcg/ml (P. aeruginosa R 70; in presence of Compound B at 4 mcg/ml, P. aeruginosa R 70): ≤0.12 µg/mL | MIC (mcg/ml) of carbapenem in presence of [A] at 4 mcg/ml (P. aeruginosa 2779; [4]): ≤0.25 µg/mL | MIC (mcg/ml) of carbapenem in presence of [B] at 4 mcg/ml (P. aeruginosa 2779; [5]): 0.12 µg/mL | MIC (mcg/ml) of carbapenem in presence of [A] at 4 mcg/ml (P. aeruginosa 1405; [4]): 1 µg/mL | MIC (mcg/ml) of carbapenem in presence of [B] at 4 mcg/ml (P. aeruginosa 1405; [5]): 1 µg/mL | MIC (P. aeruginosa J 154): 16 mg/L | MIC (mcg/ml) of carbapenem in presence of [A] at 4 mcg/ml (P. aeruginosa J 154; in presence of Compound A at 4 mcg/ml, P. aeruginosa J 154): 4 µg/mL | MIC (mcg/ml) of carbapenem in presence of [B] at 4 mcg/ml (P. aeruginosa J 154; in presence of Compound B at 4 mcg/ml, P. aeruginosa J 154): 0.5 µg/mL

O=C(NNC(=O)[C@@H]1CC[C@@H]2CN1C(=O)N2OS(=O)(=O)O)[C@@H]1CCCNC1 [Compound A, trans-sulfuric acid mono-[2-(N′-[(R)-piperidin-3-carbonyl]-hydrazinocarbonyl)-7-oxo-1,6-diaza-bicyclo[3.2.1]oct-6-yl]ester]
effect on bacterial counts through out the duration of the study (in words) ([1]; when used alone): failed to reduce the bacterial counts | Bacterial count (Log10 CFU/ml) 0 hour ([1]; Table 2, single agent 4 mcg/ml): 6.84 Log10 CFU/ml | Bacterial count (Log10 CFU/ml) 2 hour ([1]; Table 2, single agent 4 mcg/ml): 6.81 Log10 CFU/ml | Bacterial count (Log10 CFU/ml) 4 hour ([1]; Table 2, single agent 4 mcg/ml): 7.84 Log10 CFU/ml | Bacterial count (Log10 CFU/ml) 6 hour ([1]; Table 2, single agent 4 mcg/ml): 8.06 Log10 CFU/ml | Bacterial count (Log10 CFU/ml) 0 hour ([1]; Table 2, single agent 8 mcg/ml): 6.84 Log10 CFU/ml | Bacterial count (Log10 CFU/ml) 2 hour ([1]; Table 2, single agent 8 mcg/ml): 6.48 Log10 CFU/ml | Bacterial count (Log10 CFU/ml) 4 hour ([1]; Table 2, single agent 8 mcg/ml): 7.4 Log10 CFU/ml | Bacterial count (Log10 CFU/ml) 6 hour ([1]; Table 2, single agent 8 mcg/ml): 7.54 Log10 CFU/ml | effect on bacterial counts through out the duration of the study (in words) ([2]; when used alone): failed to reduce the bacterial counts | Bacterial count (Log10 CFU/ml) 0 hour ([2]; Table 4, single agent 4 mcg/ml): 6.62 Log10 CFU/ml | Bacterial count (Log10 CFU/ml) 2 hour ([2]; Table 4, single agent 4 mcg/ml): 7.07 Log10 CFU/ml | Bacterial count (Log10 CFU/ml) 4 hour ([2]; Table 4, single agent 4 mcg/ml): 8.35 Log10 CFU/ml | Bacterial count (Log10 CFU/ml) 6 hour ([2]; Table 4, single agent 4 mcg/ml): 8.48 Log10 CFU/ml | Bacterial count (Log10 CFU/ml) 0 hour ([2]; Table 4, single agent 8 mcg/ml): 6.62 Log10 CFU/ml | Bacterial count (Log10 CFU/ml) 2 hour ([2]; Table 4, single agent 8 mcg/ml): 6.9 Log10 CFU/ml | Bacterial count (Log10 CFU/ml) 4 hour ([2]; Table 4, single agent 8 mcg/ml): 7.11 Log10 CFU/ml | Bacterial count (Log10 CFU/ml) 6 hour ([2]; Table 4, single agent 8 mcg/ml): 7.16 Log10 CFU/ml | MIC (P. aeruginosa R 70): 8 mg/L | MIC (P. aeruginosa J 154): 16 mg/L | MIC values (in words) [3]: higher MIC values
